Assay: release profiles of drugs from halloysite tubule compositions, relative to total release amounts (FIGS. 4 and 5)
Assay type: physicochemical
Conditions: release from mineral-derived tubule composition relative to total release amount; FIG. 4 (Tetracycline), FIG. 5 (Khellin)
From the text: FIGS. 4 and 5, respectively illustrate, relative to total release amounts, the release profiles for two drugs (Tetracycline and Khellin), wherein prolonged application periods are desired.

COc1c2occc2c(OC)c2c(=O)cc(C)oc12 [Khellin]
release profile extends for: several days

Reference: patent US20080194406A1, “METHOD FOR TREATING AGRICULTURAL CROPS USING MATERIALS ASSOCIATED WITH TUBULAR CARRIERS” (NaturalNano, Inc., priority 2005, published 2008)
